Legend:
Type in all cases: in vivo
Amaranthus retroflexus = assay: Post-emergence herbicidal action, AMARE; set-up: key: % herbicidal action vs untreated; 100 = plants died, 0 = like control
Method in brief: (§1)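 One-leaf-stage weeds, raised from seed in greenhouse sandy loam, received a single foliar spray of compound as wettable powder or emulsion concentrate with 0.2% wetting agent added. Growth continued under optimal conditions for about 3 weeks before percent damage was scored by eye against controls.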

Matricaria inodora = assay: Pre-emergence herbicidal action, MATIN; set-up: key to Herbicidal action against MATIN: % activity: 100 = plants have died, 0 = like control plants; settings: for herbicidal activity MATIN / herbicidal action MATIN: dosage 320 g/ha; for herbicidal activity MATIN: scored visually after 3 weeks vs untreated controls (100% = plants have died); for Herbicidal action against MATIN: comparative experiment
Method in brief: (§2)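 Percent damage, assessed visually after 3 weeks and referenced to untreated controls, reflects a pre-emergence treatment. Spray liquid equated to 600 to 800 l/ha with 0.2% wetting agent, applied to the covering soil over seeds in sandy loam.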

Stellaria media = assay: Post-emergence herbicidal action, STEME; set-up: key: % herbicidal action vs untreated; 100 = plants died, 0 = like control
Method in brief: as §1

Polygonum convolvulus [1] = assay: Pre-emergence herbicidal action, POLCO; settings: for herbicidal activity POLCO / herbicidal action POLCO: dosage 320 g/ha; for herbicidal activity POLCO: scored visually after 3 weeks vs untreated controls (100% = plants have died)
Method in brief: as §2

Pharbitis purpurea = assay: Post-emergence herbicidal action, PHBPU
Method in brief: as §1

Viola tricolor = assay: Post-emergence herbicidal action, VIOTR; set-up: key: % herbicidal action vs untreated; 100 = plants died, 0 = like control; settings: for Herbicidal action against VIOTR: comparative experiment
Method in brief: as §1

Polygonum convolvulus [2] = assay: Post-emergence herbicidal action, POLCO; settings: for Herbicidal action against POLCO: comparative experiment
Method in brief: as §1

[3] = comparative experiment, post-emergence, 20 g of a.i./ha
[4] = post-emergence, 20 g of a.i./ha
[5] = comparative experiment, post-emergence, 5 g of a.i./ha

SMILES | herbicidal action AMARE (Amaranthus retroflexus; post-emergence, dosage 80 g/ha) [%] | herbicidal activity MATIN (Matricaria inodora) [%] | herbicidal action STEME (Stellaria media; post-emergence, dosage 80 g/ha) [%] | herbicidal activity POLCO (Polygonum convolvulus [1]) [%] | herbicidal action PHBPU (Pharbitis purpurea; post-emergence, dosage 80 g/ha) [%] | herbicidal action VIOTR (Viola tricolor; post-emergence, dosage 80 g/ha) [%] | herbicidal action POLCO (Polygonum convolvulus [2]; post-emergence, dosage 80 g/ha) [%] | herbicidal action STEME (Stellaria media; Dosage 80 g/ha) | herbicidal action PHBPU (Pharbitis purpurea; Dosage 80 g/ha) | herbicidal action POLCO (Polygonum convolvulus [2]; Dosage 80 g/ha) | other results
CC[S+]([O-])Cc1c(C(F)(F)F)ccc(C(=O)Nc2nnnn2C)c1Cl (racemic) [Example 1-300] | 100 | 100 | 100 | 100 | 90 | 100 | 100 | – | – | – | –
Cn1nnnc1NC(=O)c1ccc(C(F)(F)F)c(C[S+]([O-])C2CC2)c1Cl (racemic) [Example 1-303] | 100 | 100 | 100 | 100 | 100 | 100 | 100 | – | – | – | –
COCC[S+]([O-])Cc1c(C(F)(F)F)ccc(C(=O)Nc2nnnn2C)c1Cl (racemic) [Example 1-306] | – | 100 | – | 80 | – | – | – | 90 | 90 | 90 | herbicidal action AMARE (Amaranthus retroflexus; Dosage 80 g/ha): 100; herbicidal action VIOTR (Viola tricolor; Dosage 80 g/ha): 100
Cn1nnnc1NC(=O)c1ccc(C(F)(F)F)c(C[S+]([O-])CC(F)(F)F)c1Cl (racemic) [Example 1-312] | 100 | 100 | 100 | 90 | 100 | 100 | 100 | – | – | – | –
CC[S+]([O-])Cc1c(C(F)(F)F)ccc(C(=O)Nc2nnnn2C)c1Br (racemic) [Example 1-384] | 90 | 100 | 90 | 90 | 90 | 100 | 90 | – | – | – | Herbicidal action against AMARE (Amaranthus retroflexus; [3]): 90; Herbicidal action against VIOTR (Viola tricolor; [4]): 100
CSCc1c(C(F)(F)F)ccc(C(=O)Nc2nnnn2C)c1C [Example 1-83] | 100 | 100 | 100 | 100 | 100 | 90 | 90 | – | – | – | –
CSc1c(C(=O)Nc2nnnn2C)ccc(C(F)(F)F)c1C[S+](C)[O-] (centres unmarked) [Example 1-162] | 100 | 100 | 100 | 100 | 100 | 100 | 90 | – | – | – | Herbicidal action against POLCO (Polygonum convolvulus [1]; comparative experiment, 20 g of a.i./ha): 80
CSc1c(C(=O)Nc2nnnn2C)ccc(C(F)F)c1C[S+](C)[O-] (centres unmarked) [Example 1-171] | – | 100 | – | 100 | – | – | – | 100 | 90 | 100 | herbicidal action AMARE (Amaranthus retroflexus; Dosage 80 g/ha): 100; herbicidal action VIOTR (Viola tricolor; Dosage 80 g/ha): 90
CCSCc1c(C(F)(F)F)ccc(C(=O)Nc2nnnn2C)c1Cl [Example 1-299] | 100 | 100 | 100 | 90 | 90 | 100 | 80 | – | – | – | Herbicidal action against MATIN (Matricaria inodora; 20 g of a.i./ha): 90; Herbicidal action against STEME (Stellaria media; [5]): 100; Herbicidal action against POLCO (Polygonum convolvulus [2]; post-emergence, 5 g of a.i./ha): 60
Cn1nnnc1NC(=O)c1ccc(C(F)(F)F)c(CSC2CC2)c1Cl [Example 1-302] | 100 | 100 | 100 | 100 | 100 | 100 | 100 | – | – | – | –
Cn1nnnc1NC(=O)c1ccc(C(F)(F)F)c(CS(=O)(=O)C2CC2)c1Cl [Example 1-304] | 100 | 100 | 100 | 100 | 100 | 100 | 100 | – | – | – | –
Cn1nnnc1NC(=O)c1ccc(C(F)(F)F)c(CSCC2CC2)c1Cl [Example 1-314] | 100 | 100 | 100 | 100 | 100 | 100 | 100 | – | – | – | –
Cn1nnnc1NC(=O)c1ccc(C(F)(F)F)c(CS(=O)(=O)CC2CC2)c1Cl [Example 1-316] | – | 100 | – | 100 | – | – | – | 100 | 90 | 100 | herbicidal action AMARE (Amaranthus retroflexus; Dosage 80 g/ha): 100; herbicidal action VIOTR (Viola tricolor; Dosage 80 g/ha): 100
CSCc1c(C(F)F)ccc(C(=O)Nc2nnnn2C)c1Cl [Example 1-320] | – | 100 | – | 90 | – | – | – | 100 | 90 | 80 | herbicidal action AMARE (Amaranthus retroflexus; Dosage 80 g/ha): 100; Herbicidal action against AMARE (Amaranthus retroflexus; [5]): 100; Herbicidal action against STEME (Stellaria media; [5]): 100; herbicidal action VIOTR (Viola tricolor; Dosage 80 g/ha): 100
Cn1nnnc1NC(=O)c1ccc(C(F)F)c(CS(C)(=O)=O)c1Cl [Example 1-322] | 80 | 100 | 100 | 100 | 80 | 100 | 90 | – | – | – | –
CCSCc1c(C(F)F)ccc(C(=O)Nc2nnnn2C)c1Cl [Example 1-323] | 90 | 90 | 100 | 100 | 100 | 100 | 90 | – | – | – | –
CCSCc1c(C(F)(F)F)ccc(C(=O)Nc2nnnn2C)c1Br [Example 1-383] | 90 | 100 | 100 | 100 | 90 | 100 | 90 | – | – | – | Herbicidal action against STEME (Stellaria media; [3]): 100; Herbicidal action against VIOTR (Viola tricolor; [4]): 100
CCS(=O)(=O)Cc1c(C(F)(F)F)ccc(C(=O)Nc2nnnn2C)c1Br [Example 1-385] | 90 | 100 | 100 | 90 | 90 | 100 | 90 | – | – | – | Herbicidal action against AMARE (Amaranthus retroflexus; [3]): 90; Herbicidal action against MATIN (Matricaria inodora; 80 g of a.i./ha): 100; Herbicidal action against STEME (Stellaria media; [3]): 100; Herbicidal action against PHBPU (Pharbitis purpurea; [3]): 80; Herbicidal action against VIOTR (Viola tricolor; [4]): 100; Herbicidal action against POLCO (Polygonum convolvulus [2]; [4]): 70
Cn1nnnc1NC(=O)c1ccc(C(F)(F)F)c(CS(C)(=O)=O)c1C(F)(F)C(F)(F)F [Example 1-552] | – | 100 | – | 90 | – | – | – | 90 | 100 | 90 | herbicidal action AMARE (Amaranthus retroflexus; Dosage 80 g/ha): 90; herbicidal action VIOTR (Viola tricolor; Dosage 80 g/ha): 90
COc1c(C(=O)Nc2nnnn2C)ccc(Cl)c1CSC [Example 1-570] | – | – | – | – | – | – | – | – | – | – | Herbicidal action against AMARE (Amaranthus retroflexus; post-emergence, dosage 80 g/ha): 90; herbicidal action MATIN (Matricaria inodora): 100%; Herbicidal action against STEME (Stellaria media; post-emergence, dosage 80 g/ha): 80; herbicidal action POLCO (Polygonum convolvulus [1]): 80%; Herbicidal action against PHBPU (Pharbitis purpurea; post-emergence, dosage 80 g/ha): 90; Herbicidal action against VIOTR (Viola tricolor; post-emergence, 5 g of a.i./ha): 60; Herbicidal action against POLCO (Polygonum convolvulus [2]; post-emergence, 5 g of a.i./ha): 30
CCSCc1c(C(F)(F)F)ccc(C(=O)Nc2nnnn2CC)c1C [Example 2-86] | 80 | – | 100 | – | 90 | 100 | 100 | – | – | – | herbicidal action MATIN (Matricaria inodora): 100%; herbicidal action POLCO (Polygonum convolvulus [1]): 80%
CCn1nnnc1NC(=O)c1ccc(C(F)(F)F)c(C[S+](C)[O-])c1SC (centres unmarked) [Example 2-162] | – | 100 | – | 100 | – | – | – | 100 | 90 | 90 | herbicidal action AMARE (Amaranthus retroflexus; Dosage 80 g/ha): 90; herbicidal action VIOTR (Viola tricolor; Dosage 80 g/ha): 100
CCCn1nnnc1NC(=O)c1ccc(C(F)(F)F)c(CSCC)c1C [Example 3-86] | – | – | – | – | – | – | – | 100 | 90 | 80 | herbicidal action MATIN (Matricaria inodora): 100%; herbicidal action POLCO (Polygonum convolvulus [1]): 90%; herbicidal action VIOTR (Viola tricolor; Dosage 80 g/ha): 100
CCCn1nnnc1NC(=O)c1ccc(C(F)F)c(CS(C)(=O)=O)c1Cl [Example 3-322] | – | 100 | – | 100 | – | – | – | 100 | 90 | 80 | herbicidal action AMARE (Amaranthus retroflexus; Dosage 80 g/ha): 90
